Results taken from US11884708B2, “Stapled peptide inhibitors of nemo as potential anti-inflammatory and anti-cancer drugs” (INSTITUT PASTEUR, priority 2015, dated 2024).
Where two headings read alike, the source gives them in different places. Where a SMILES comes first, the peptide text is derived from it. Bridges are numbered along the chain shown (N, C = ends). [ ]: non-standard residue; d: D form. The star is where a group is joined. BODIPYFLEthylmaleimide = Cc1cc(C)n2c1C=C1C=CC(CCC(=O)NCCN3C(=O)CC(*)C3=O)=[N+]1[B-]2(F)F; R8 = C=CCCCCCC[C@@](C)(N)C(=O)O; S5 = C=CCCC[C@](C)(N)C(=O)O

Key:
[1] = CD spectroscopy, α-helical content; type: physicochemical; settings: 50 μM peptide, phosphate buffer pH 7.0, UBI in TFE taken as 100%
CC2-LZ domain of NEMO = CC2-LZ domain of NEMO (Mus musculus, UniProt O88522); assay: Fluorescence anisotropy/polarization binding assay; settings: for Kd: fixed peptide concentration 0.1 μM; for Binding affinity (FP) at 10 μM: fixed peptide concentration 10 μM
Chain of CC2-LZ domain of NEMO (O88522 242-343 limits assumed): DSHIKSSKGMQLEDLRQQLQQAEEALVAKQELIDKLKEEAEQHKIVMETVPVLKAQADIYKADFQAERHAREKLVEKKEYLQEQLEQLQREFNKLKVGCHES
Procedure: Measurements were performed on a Tecan infinite F500 equipped with polarizing filters and using excitation and emission wavelengths at 485 nm and 535 nm, respectively. Anisotropy data were calculated using the Magellan software version 6.5. Prior experiments, the mouse CC2-LZ was extensively dialyzed in binding buffer containing 20 mM HEPES pH 7.4, 100 mM NaCl, and 0.05% P20 detergent (v/v). All experiments were performed in a 384 well plate (vol 25 μl) at room temperature. The BODIPY®-labeled peptide concentrations were fixed at 0.1 or 10 μM whereas the CC2-LZ concentration varied from 0 to 100 μM. Reference calibrated at 22 mP, was based on the fluorescence of the peptide alone. Each experimental binding curve was determined from at least 10 independent concentration points. The G-factor was calculated as previously described in Agou et al. [7], with a value of 0.75, which was observed constant within 5% upon all titrations. For analysis, the blank value corresponding to the value of buffer alone, was subtracted from all titration data.
All NEMO peptides were conjugated to an extra N-terminal cysteine with the fluorophore BODIPY® or FITC to determine their binding affinity for the CC2-LZ domain of NEMO (also called NOA or UBAN) by fluorescence polarization. For each peptide titration, various concentration of the target ranging from 0 to 100 μM and a fixed concentration of peptide at 0.1 or 10 μM were used at 25° C. […] For these reasons, all further titration experiments were performed with a fixed peptide concentration of 0.1 μM unless otherwise indicated.

[2] = Temperature-induced denaturation followed by CD; type: physicochemical; settings: 30 μM or 300 μM, ΔCp ≈ 0; for Tm: thermal denaturation by CD; for ΔH: van't Hoff enthalpy change at Tm
Procedure: Temperature-induced denaturation experiments were performed by measuring the ellipticity at 222 nm from 1° C. to 95° C. in 1° C. steps, at a rate of 1° C./min, with a 2 nm bandwidth. Thermodynamic parameters including the melting temperature (Tm) and the van't Hoff enthalpy change at the melting temperature (ΔHm) were determined by fitting the denaturation curves with the Gibbs-Helmholtz equation as described elsewhere, [10]. The heat capacity change (ΔCp) was assumed to be 0 as judged by ΔHm which yielded similar values within 10% at two independent peptide concentrations (30 and 300 μM). The ellipticity was converted to differential extinction coefficient Δε (M^−1·cm^−1) per residue taking into account the peptide concentration determined by amino acid analysis.
Thermal stability of the peptides was also investigated by performing thermal denaturation profiles followed by CD (FIGS. 1 C and D and Table III). […] Indeed, the helicity of UBI-Aib (49%) is only 1.16-fold increased at 1° C. compared to UBI (42%), while its melting temperature (Tm=−8° C.) is 2.25 times higher than that of UBI (Tm=−18° C.).

[3] = read-out: Binding affinity (FP) at 0.1 μM

α-helical content at 1° C. [1]	Kd (CC2-LZ domain of NEMO; peptides with antennapedia, read-out: KD) [µM]	ΔS [2]	Tm [2]	ΔH [2]	Binding affinity (FP) at 10 μM (CC2-LZ domain of NEMO)	Kd (CC2-LZ domain of NEMO; [3]) [µM]	SMILES	Kd (CC2-LZ domain of NEMO; peptides with antennapedia) [µM]
57%	0.2	–	–	–	–	–	CC[C@H](C)[C@H](NC(=O)[C@H](CC(=O)O)NC(=O)[C@H](C)NC(=O)[C@H](CCC(N)=O)NC(=O)[C@H](C)NC(=O)[C@H](CCCCN)NC(=O)[C@H](CC(C)C)NC(=O)[C@H](CCCCN)NC(=O)[C@H](CCCCN)NC(=O)[C@H](Cc1c[nH]c2ccccc12)NC(=O)[C@H](CCCCN)NC(=O)[C@H](CCSC)NC(=O)[C@H](CCCNC(=N)N)NC(=O)[C@H](CCCNC(=N)N)NC(=O)[C@H](CC(N)=O)NC(=O)[C@H](CCC(N)=O)NC(=O)[C@H](Cc1ccccc1)NC(=O)[C@H](Cc1c[nH]c2ccccc12)NC(=O)[C@@H](NC(=O)[C@H](CCCCN)NC(=O)[C@@H](NC(=O)[C@H](CCC(N)=O)NC(=O)[C@H](CCCNC(=N)N)NC(=O)[C@H](CSC1CC(=O)N(CCNC(=O)CCC2=[N+]3C(=Cc4c(C)cc(C)n4[B-]3(F)F)C=C2)C1=O)NC(C)=O)[C@@H](C)CC)[C@@H](C)CC)C(=O)N[C@@H](Cc1ccc(O)cc1)C(=O)N[C@@H](CCCCN)C(=O)N[C@@]1(C)CCCC=CCCC[C@@](C)(C(=O)N[C@@H](CCC(=O)O)C(=O)N[C@@H](CCCNC(=N)N)C(=O)N[C@@H](Cc2c[nH]cn2)C(=O)N[C@@H](C)C(=O)N[C@@H](CCCNC(=N)N)C(=O)N[C@@H](CCC(=O)O)C(=O)N[C@@H](CCCCN)C(N)=O)NC(=O)[C@H](CCC(N)=O)NC(=O)[C@H](Cc2ccccc2)NC(=O)[C@H](CCCNC(=N)N)NC1=O (stereo partly drawn) [A-UBI-SAHN A310-A314, RQIKIWFQNRRMKWKKLKAQADIYKX4RFQX6ERHAREK] (Ac-C(BODIPYFLEthylmaleimide)RQIKIWFQNRRMKWKKLKAQADIYK[S5]RFQ[S5]ERHAREK-NH2; staple 27-31)	–
B: 76%	–	B: −17 cal. mol^−1.K^−1	35 ± 0.3 C°	B: −5290 (cal. mol)^−1	Very weak	–	CC[C@H](C)[C@@H]1NC(=O)[C@](C)(NC(=O)[C@H](C)NC(=O)[C@H](CCC(N)=O)NC(=O)[C@H](C)NC(=O)[C@H](CCCCN)NC(=O)[C@H](CC(C)C)NC(=O)[C@H](CSC2CC(=O)N(CCNC(=O)CCC3=[N+]4C(=Cc5c(C)cc(C)n5[B-]4(F)F)C=C3)C2=O)NC(C)=O)CCCCCCC=CCCC[C@@](C)(C(=O)N[C@@H](C)C(=O)N[C@@H](CCC(=O)O)C(=O)N[C@@H](CCCNC(=N)N)C(=O)N[C@@H](Cc2c[nH]cn2)C(=O)N[C@@H](C)C(=O)N[C@@H](CCCNC(=N)N)C(=O)N[C@@H](CCC(=O)O)C(=O)N[C@@H](CCCCN)C(N)=O)NC(=O)[C@H](Cc2ccccc2)NC(=O)[C@H](CCCNC(=N)N)NC(=O)[C@H](C)NC(=O)[C@H](CCCCN)NC(=O)[C@H](Cc2ccc(O)cc2)NC1=O (single isomer, unassigned) [UBI-SAHN D306-Q313 (B)]	–
B: 58%	–	B: −24 cal. mol^−1.K^−1	32 ± 0.3 C°	B: −7200 (cal. mol)^−1	–	> 800	CC(=O)N[C@@H](CSC1CC(=O)N(CCNC(=O)CCC2=[N+]3C(=Cc4c(C)cc(C)n4[B-]3(F)F)C=C2)C1=O)C(=O)N[C@@H](CCC(=O)O)C(=O)N[C@@H](CC(C)C)C(=O)N[C@@H](C)C(=O)N[C@@H](CCC(N)=O)C(=O)N[C@@H](CC(C)C)C(=O)N[C@@H](CCC(N)=O)C(=O)N[C@@H](C)C(=O)N[C@@H](CCC(=O)O)C(=O)N[C@@H](CC(C)C)C(=O)N[C@@H](CC(=O)O)C(=O)N[C@]1(C)CCCCCCC=CCCC[C@@](C)(C(=O)N[C@@H](CC(=O)O)C(=O)N[C@@H](CCCCN)C(=O)N[C@@H](CCC(N)=O)C(=O)N[C@@H](CCC(=O)O)C(=O)N[C@@H](CC(C)C)C(=O)N[C@@H](CCCNC(=N)N)C(=O)N[C@@H](CCCCN)C(=O)N[C@@H](CC(C)C)C(N)=O)NC(=O)[C@H](CCC(N)=O)NC(=O)[C@H](C(C)C)NC(=O)[C@H](C(C)C)NC(=O)[C@H](C)NC(=O)[C@H](CCC(N)=O)NC(=O)[C@H](C(C)C)NC1=O (single isomer, unassigned) [Co-SAHN I307-A314 (B), ELAQLQAELDXVQAVVQXDKQELRKL, reference compound]	–
A: 45% -	–	A: −24 - cal. mol^−1.K^−1	A: 21 - B: C°	A: −6970 - (cal. mol)^−1	–	> 1850	CC(=O)N[C@@H](CSC1CC(=O)N(CCNC(=O)CCC2=[N+]3C(=Cc4c(C)cc(C)n4[B-]3(F)F)C=C2)C1=O)C(=O)N[C@@H](CCC(=O)O)C(=O)N[C@@H](CC(C)C)C(=O)N[C@@H](C)C(=O)N[C@@H](CCC(N)=O)C(=O)N[C@@H](CC(C)C)C(=O)N[C@@H](CCC(N)=O)C(=O)N[C@@H](C)C(=O)N[C@@H](CCC(=O)O)C(=O)N[C@@H](CC(C)C)C(=O)N[C@@H](CC(=O)O)C(=O)N[C@]1(C)CCCCCCC=CCCC[C@@](C)(C(=O)N[C@@H](CC(=O)O)C(=O)N[C@@H](CCCCN)C(=O)N[C@@H](CCC(N)=O)C(=O)N[C@@H](CCC(=O)O)C(=O)N[C@@H](CC(C)C)C(=O)N[C@@H](CCCNC(=N)N)C(=O)N[C@@H](CCCCN)C(=O)N[C@@H](CC(C)C)C(N)=O)NC(=O)[C@H](CCC(N)=O)NC(=O)[C@H](C(C)C)NC(=O)[C@H](C(C)C)NC(=O)[C@H](C)NC(=O)[C@H](CCC(N)=O)NC(=O)[C@H](C(C)C)NC1=O (single isomer, unassigned) [Co-SAHN I307-A314 (A), ELAQLQAELDXVQAVVQXDKQELRKL, reference compound]	–
A: 75% -	–	A: −16 - cal. mol^−1.K^−1	35 ± 0.3 C°	A: −4800 - (cal. mol)^−1	Very weak	34 ± 6	CC[C@H](C)[C@@H]1NC(=O)[C@](C)(NC(=O)[C@H](C)NC(=O)[C@H](CCC(N)=O)NC(=O)[C@H](C)NC(=O)[C@H](CCCCN)NC(=O)[C@H](CC(C)C)NC(=O)[C@H](CSC2CC(=O)N(CCNC(=O)CCC3=[N+]4C(=Cc5c(C)cc(C)n5[B-]4(F)F)C=C3)C2=O)NC(C)=O)CCCCCCC=CCCC[C@@](C)(C(=O)N[C@@H](C)C(=O)N[C@@H](CCC(=O)O)C(=O)N[C@@H](CCCNC(=N)N)C(=O)N[C@@H](Cc2c[nH]cn2)C(=O)N[C@@H](C)C(=O)N[C@@H](CCCNC(=N)N)C(=O)N[C@@H](CCC(=O)O)C(=O)N[C@@H](CCCCN)C(N)=O)NC(=O)[C@H](Cc2ccccc2)NC(=O)[C@H](CCCNC(=N)N)NC(=O)[C@H](C)NC(=O)[C@H](CCCCN)NC(=O)[C@H](Cc2ccc(O)cc2)NC1=O (single isomer, unassigned) [UBI-SAHN D306-Q313 (A)]	–
–	–	–	–	–	–	–	CC[C@H](C)[C@H](NC(=O)[C@H](CCCCN)NC(=O)[C@@H](NC(=O)[C@H](CCC(N)=O)NC(=O)[C@H](CCCNC(=N)N)NC(=O)[C@H](CSC1CC(=O)N(CCNC(=O)CCC2=[N+]3C(=Cc4c(C)cc(C)n4[B-]3(F)F)C=C2)C1=O)NC(C)=O)[C@@H](C)CC)C(=O)N[C@@H](Cc1c[nH]c2ccccc12)C(=O)N[C@@H](Cc1ccccc1)C(=O)N[C@@H](CCC(N)=O)C(=O)N[C@@H](CC(N)=O)C(=O)N[C@@H](CCCNC(=N)N)C(=O)N[C@@H](CCCNC(=N)N)C(=O)N[C@@H](CCSC)C(=O)N[C@@H](CCCCN)C(=O)N[C@@H](Cc1c[nH]c2ccccc12)C(=O)N[C@@H](CCCCN)C(=O)N[C@@H](CCCCN)C(=O)N[C@@H](CC(C)C)C(=O)N[C@@H](CCCCN)C(=O)N[C@@H](C)C(=O)N[C@@H](CCC(N)=O)C(=O)N[C@@H](C)C(=O)N[C@]1(C)CCCCCCC=CCCC[C@@](C)(C(=O)N[C@@H](C)C(=O)N[C@@H](CCC(=O)OC)C(=O)N[C@@H](CCCNC(=N)N)C(=O)N[C@@H](Cc2c[nH]cn2)C(=O)N[C@@H](C)C(=O)N[C@@H](CCCNC(=N)N)C(=O)N[C@@H](CCC(=O)OC)C(=O)N[C@@H](CCCCN)C(N)=O)NC(=O)[C@H](Cc2ccccc2)NC(=O)[C@H](CCCNC(=N)N)NC(=O)[C@H](C)NC(=O)[C@H](CCCCN)NC(=O)[C@H](Cc2ccc(O)cc2)NC(=O)[C@H]([C@@H](C)CC)NC1=O (stereo partly drawn) [A-UBI-SAHN D306-Q313 OMe, RQIKIWFQNRRMKWKKLKAQAX2IYKARFX5AX7RHARX9K] (Ac-C(BODIPYFLEthylmaleimide)RQIKIWFQNRRMKWKKLKAQA[R8]IYKARF[S5]AE(OMe)RHARE(OMe)K-NH2; staple 23-30)	0.06 ± 0.01
